| Compound | melting point |
| --- | --- |
| COC(=O)NCC1CN(c2ccc(C3C=CS(=O)(=O)CC3)cc2)C(=O)O1 (configuration not stated) | 196 to 197 °C |
| CCOP(=O)(OCC)C1CCn2c(=O)c(=O)[nH]c3cc(C(F)(F)F)cc1c32 (configuration not stated) | 250 °C |
| COc1c(Cl)ccc(Cl)c1C(=O)NOCC(=O)O | 145 to 154 °C |
| Clc1ccc(-n2nc3c(c2Br)CCC3)cc1 | 109 to 112 °C |
| Cc1nn(-c2ccc(NC=C3C(=O)NC(=O)c4ccc(Br)cc43)cc2)c(C)c1Cl | 290 to 291 °C |
| CCOC(=O)c1c(OC(C)C)c(Br)c(Br)n1Cc1ccccc1 | 46 to 48 °C |
| O=C1CCN(c2ccccc2)C(=O)C1=C1SC=CS1 | 150 to 152 °C |
| O=C1NC2CC3CC(C2)CC1C3 | > 270 °C |
| CC(=O)N(c1nc2cc3nc(N(C(C)=O)N4CCCCC4C)sc3cc2s1)N1CCCCC1C (configuration not stated) | 242 to 245 °C |
| COC(=O)c1c(Br)c(F)cc2[nH]ncc12 | 169 to 171 °C |
| COc1cccc(C(=O)O)c1CCc1cccc(Cl)c1 | 91 °C |
| COc1ccc(-n2nnc(-c3ccc(F)cc3Cl)c2N)cc1 | 175 to 177 °C |
| COc1c(Cl)cc(Cl)c(OC)c1C(=O)O | 98 to 100 °C |
| CCOC(=O)c1cc(-c2ccc(Cl)cc2)n(O)c1C(=O)OCC | 82 to 84 °C |
| CNC(=O)c1cc(Oc2ccc3c(C(=O)Nc4cccc(C(F)(F)F)c4)cccc3c2)ccn1 | 175 to 177 °C |
| Cc1c(C)c2c(c(C)c1O)C(c1ccc(N3CCN(C)CC3)cc1)C(C)(C)O2 (configuration not stated) | 159 to 161 °C |
| C#CCOC(C(=O)O)c1ccc(Cl)cc1 (configuration not stated) | 69 to 70 °C |
| NC(=NN=Cc1c(Cl)cccc1Cl)Nc1c(Cl)cccc1Cl | 230 to 231 °C |
| CCC1Cc2cc(N)ccc2C1=O (configuration not stated) | 106 to 108 °C |
| COC(=O)c1cccc(OCC(=O)NN=C2C(=O)Nc3ccc(I)cc32)c1 | 237 °C |
| CCCn1c(=O)c2c(nn3cc(C4CC4)[nH]c23)n(Cc2ccccc2)c1=O | 264 to 265 °C |
| O=S(=O)(c1ccccc1)N1CC2CCC(C1)O2 | 166 to 168 °C |
| O=C(O)COc1cccc(-n2nc(-c3ccc(F)cc3)c3cccnc32)c1 | 225 to 226 °C |
| O=C(CCCN1CCOCC1)c1ccc2c(c1)C(=O)c1cc(C(=O)CCCN3CCOCC3)ccc1-2 | 174 to 176 °C |
| O=C(O)c1ccccc1Oc1ccccc1O | 147 to 149 °C |

| Compound | melting point |
| --- | --- |
| CCN(CC)C(=O)O[C@@H]1[C@@H](c2ccccc2)Nc2c(ccn3c(C)c(C)nc23)[C@H]1OC | 97 to 98 °C |
| CCCCCCCCCCCC(=O)Nc1ccc2nc(S)[nH]c2c1 | 266 to 267 °C |
| CCOC(CCn1c(-c2ccc(F)cc2)c(-c2ccccc2)c(C(=O)Nc2ccccc2)c1C(C)C)OCC | 125 to 128 °C |
| COc1cc(OC)nc(Sc2sccc2NS(=O)(=O)CC#N)c1 | 118 to 120 °C |
| CNC(=O)c1ccc(COCc2csc3nc(C(=O)NCc4cccc(OC)c4)[nH]c(=O)c23)cc1 | 190 to 191 °C |
| c1cn(Cc2ccc3[nH]c(-n4ccnc4)nc3c2)cn1 | 226 °C |
| CCCC1=NN(c2ccccc2C(=O)O)C(=O)C1=CNc1ccccc1CC | 127 °C |
| O=C(OCCCc1ccccc1)c1ccc2c(c1)C(Cl)(Cl)c1cc(C(=O)OCCCc3ccccc3)ccc1-2 | 91 to 92 °C |
| CC(=O)Nc1ccc(Cl)cc1C(=O)c1ccccc1 | 114 °C |
| CCCc1nc(C)n2nc(SC)nc2c1Cc1ccc([N+](=O)[O-])cc1 | 130 °C |
| CCn1ncc2c(Cl)c3cc(Br)ccc3nc21 | 117 to 118 °C |
| N#Cc1nsc2ccc([N+](=O)[O-])cc12 | 168 to 170 °C |
| Cn1cc(-c2cnc3c(c2)N(Cc2cc(Cl)ccc2C(F)(F)F)CCN3)cn1 | 156 °C |
| CC(=O)c1c(O)cccc1OCC(O)COc1ccc(F)cc1 (configuration not stated) | 111 to 113 °C |
| CCOCc1nc2c(N)nc3ccccc3c2s1 | 149 to 151 °C |
| CC(C)CCCC(C)C1CCC2C3CC=C4CC(NCCCNC(=O)CCCCCNc5ccc([N+](=O)[O-])cc5[N+](=O)[O-])CCC4(C)C3CCC12C (configuration not stated) | 165 to 166 °C |
| CCSCc1c(S(C)(=O)=O)ccc(C(=O)O)c1Cl | 172 to 174 °C |
| O=c1cc(-c2ccc(OCCOc3ccc(-c4cc(=O)c5c(O)cc(O)cc5o4)cc3)cc2)oc2cc(O)cc(O)c12 | 352 to 355 °C |
| COc1ccc2c(c1)c(CC(=O)NCC(C)(C)S)c(C)n2C(=O)c1ccc(Cl)cc1 | 177 to 178 °C |
| CC(C)(C)c1ccc(C(=O)NCc2ccc3c(c2)CN(C2CCC(=O)NC2=O)C3=O)cc1 (configuration not stated) | 238 to 240 °C |
| CC(=O)Nc1cc(O)cc(C(C)CCCc2ccccc2)c1 (configuration not stated) | 128 to 130 °C |
| Cn1nc(-c2ccnc(N[C@H]3CC[C@H](O)CC3)n2)c2ccccc21 | 180 to 183 °C |
| Cc1c(NC(=O)NC(C)(C)CO)c(C)c2c(c1-c1ccccc1)OCC2c1ccc(C(C)C)cc1 (configuration not stated) | 181 to 182 °C |
| Cc1sc(-c2ccc(OC(F)(F)F)cc2)cc1-c1nc(-c2c(F)cccc2Cl)nn1C | 153 to 155 °C |
| O=C(O)COc1ccc2c(=O)c3c(F)cccc3oc2c1 | 180 to 183 °C |

| Compound | melting point |
| --- | --- |
| CC(C)Oc1nc(N)nc2[nH]cnc12 | 204 to 206 °C |
| CCOC(=O)c1cc(O)c2ccc3c(c2c1-c1cc(OC)c(OC)c(OC)c1)OCO3 | 151 to 152 °C |
| C=CC[C@@]1(NC(=O)OC(C)(C)C)C(=O)[C@@H](C(C)C)N(C(=O)OC(C)(C)C)C1=O | 83 °C |
| COCCCNC(=O)Nc1ccc(N(C)C)cc1C(=O)NCC1CCN(C(c2ccccc2)c2ccccc2)CC1 | 191 to 193 °C |
| Nc1nc2c(ncn2Cc2cccnc2)c(=O)[nH]1 | > 300 °C |
| Cn1nc2c(N)nc3ccccc3c2c1CC1(F)CCN(S(C)(=O)=O)CC1 | 283 to 285 °C |
| O=c1[nH]ncc2[nH]c(-c3ccc(OC(F)F)c(OC4CC4)c3)c(Cc3ccccc3F)c12 | 202 to 204 °C |
| CC(=O)OCCC(=C(c1ccccc1)c1ccccc1)c1ccccc1 | 81 to 83 °C |
| NS(=O)(=O)NCC1COc2ccccc2O1 (configuration not stated) | 97.5 to 98.5 °C |
| CCC([O-])=C(C(=O)OCc1ccc([N+](=O)[O-])cc1)N1C(=O)CC1[N+](CC)(CC)CC (configuration not stated) | 110 to 112 °C |
| CCCCCCCCCCCCCCCCCCOCc1ccc(C(=O)O)cc1OCCCCCCCCCCCCCCCCCC | 87 to 88 °C |
| Cc1cccc(NC(=O)NCC(=O)N(CC(=O)OC(C)(C)C)c2ccc([N+](=O)[O-])cc2)c1 | 152 °C |
| Cc1cccc2c1SC(C(F)(F)F)C(C(=O)O)=C2 (configuration not stated) | 224 to 225 °C |
| CC(C)Oc1ccc(-n2c(-c3ccc(C(=O)O)cc3)c(C(=O)O)c3cc(Oc4ccc(Cl)cc4)ccc32)cc1 | 217 to 222 °C |
| CC(C)(C)OC(=O)NCCc1ccnc(-c2nc(=O)c3ccc(Cl)cc3s2)c1 | 168 to 169 °C |
| Cc1c(Cl)nc(NC=O)nc1Cl | 123 to 124 °C |
| NC1=CC(=O)C2CCCCC2C1 (configuration not stated) | 208 to 210 °C |
| CCCc1c(OCCCOc2ccc(C(=O)CCl)c(OC)c2CCC)ccc2c1OC(C(=O)OC)CC2 (configuration not stated) | 47 to 49 °C |
| CCOC(=O)c1c(CN(C)O)nc2sc3c(c2c1-c1ccc(OC)c(OC)c1)CCN(C(=O)c1ccccc1)C3 | 129 to 130 °C |
| NC(=O)c1ccccc1C(=O)NCCCN1CCC(c2noc3cc(F)ccc23)CC1 | 129 to 130 °C |
| CC(C)n1ccnc1S(=O)(=O)c1ccc(O)cc1 | 152 to 153 °C |
| COc1ccc(O)c2c1C1(CCC2)OCCO1 | 139 to 140 °C |
| CCOC(=O)NC(=O)C(C#N)=CNc1ccc(Cl)cc1 | 177 to 183 °C |
| CC1(C)CC(OC(=O)c2cccc(C(=O)OC3CC(C)(C)N(OC4CCCCC4)C(C)(C)C3)c2)CC(C)(C)N1OC1CCCCC1 | 135 to 141 °C |
| CC(C)(C)NC(=O)c1ccc(C(O)CCCc2cn([Si](C)(C)C)cn2)cc1 (configuration not stated) | 141 to 143 °C |

| Compound | melting point |
| --- | --- |
| Nc1c(F)c(N2CCC(CC3(N)CC3)C2)c(F)c2c1c(=O)c(C(=O)O)cn2C1CC1F (configuration not stated) | 185 to 193 °C |
| CCc1c(C(=O)c2cc(C)cc(C)c2)n(CC=CC(=O)OC(C)C)c(=O)[nH]c1=O | 175 to 176 °C |
| O=[N+]([O-])c1ccc(Oc2c(Cl)cc(S(=O)(=O)NC(=NO)Nc3ccc(Cl)cc3)cc2Cl)c(Cl)c1 | 180 °C |
| O=C(O)Cc1ccc(CO[N+](=O)[O-])cc1 | 109 to 110 °C |
| COc1cc2ncnc(Nc3ccc(F)c(Cl)c3)c2cc1OCCC1OCCO1 | 167 to 168 °C |
| CC(C)[C@H](NCCC#N)C(=O)O | 245 to 250 °C |
| O=C(O)Cc1nn(C(c2ccccn2)c2ncno2)c(=O)c2ccccc12 (configuration not stated) | 196 to 200 °C |
| CCC(Oc1ccc(Cl)c(C(F)(F)F)c1)C(=O)NCc1ccccc1 (configuration not stated) | 93 to 95 °C |
| COc1ccccc1NS(=O)(=O)c1cccc([N+](=O)[O-])c1 | 130 to 132 °C |
| CC(=O)C(CCCc1ccccc1)n1ncc2c(=O)[nH]c(Cc3ccc(-c4cccnc4)cc3)nc21 (configuration not stated) | 108 °C |
| CC(O)C1CCC(CNC(=O)OC(C)(C)C)CC1 (configuration not stated) | 75 to 76 °C |
| CCCCc1nc(=O)c2cc(Br)c(F)cc2[nH]1 | 225 °C |
| Cc1cc(C)c(C(C#N)c2nc(C)nc(Cl)c2C)c(C)c1 (configuration not stated) | 100 to 102 °C |
| COc1ccc(NC(=O)NC2N=C(c3ccccc3)c3ccccc3N(C)C2=O)cc1 (configuration not stated) | 261 to 263 °C |
| CCOC(=O)C1=C(C(=O)OCC)C(c2cccc([N+](=O)[O-])c2)C(C(=O)OCC)=C(CC)N1 (configuration not stated) | 153 °C |
| O=C(O)Cc1c(C(=O)c2ccc(OCc3ccccc3)cc2)[nH]c2cc(Cl)ccc12 | 220 to 222 °C |
| COC(C)(C)C(=O)C(Oc1ccc(I)cc1)n1cncn1 (configuration not stated) | 81.5 to 82.5 °C |
| CS(=O)(=O)N1CCCn2c(nc3c(N)nc4cc(Br)ccc4c32)C1 | 303 °C |
| CCCCCCCCCOC(=O)Oc1ccc(C(=O)O)cc1 | 118 to 120 °C |
| C[C@@H]1CCCN1CCCOc1ccc(C(=O)Cc2ccccn2)cc1 | 40 to 42 °C |
| Cc1cc(Br)ccc1C1(Cn2cncn2)OCCO1 | 148 °C |
| O=C(COc1ccc(Cl)cc1)N[C@@H](Cc1ccccc1)C(=O)CSCc1ccco1 | 95 to 98 °C |
